Source: patent US20030077576A1, “Use of monoclonal antibodies and functional assays for prediction of risk of opportunistic infection” (priority 2001, published 2003)

Tests used:
Type in all cases: cell-based, human
monocyte VLA-5 (CD49e) = details: for log fluorescence intensity for VLA-5 (CD49e stained with mAb SAM-1) in the CD14+ (monocyte) population, FN120: 2 μM FN120 for 2 h in the presence of the protease inhibitor; for log fluorescence intensity for VLA-5 (CD49e stained with mAb SAM-1) in the CD14+ (monocyte) population, FN120 / log fluorescence intensity for VLA-5 (CD49e stained with mAb SAM-1) in the CD14+ (monocyte) population, No Rx: 0.2 mM PMSF, 2 mM CdCl2, 40 μM bestatin, 10 μM 1,10 phenanthroline, 0.1 mM EGTA, mean ± SEM, three donors; for log fluorescence intensity for VLA-5 (CD49e stained with mAb SAM-1) in the CD14+ (monocyte) population, No Rx: protease inhibitor alone, no FN120, 2 h
Procedure: Briefly, heparinized blood was distributed in 0.1-ml aliquots into polypropylene tubes for incubation with saturating concentrations of primary or secondary antibodies at 4° C. for 30 min. Incubations were separated by two washes with ice-cold Dulbecco's PBS (Gibco Laboratories, Grand Island, N.Y.). FITC-conjugated sheep anti-mouse Ig was used at a dilution of 1:120. PE-conjugated anti-CD14 (clone 116, Beckman Coulter), added after the secondary antibody, was used according to the manufacturer's directions. After leukocytes were stained and washed, red cells were lysed with FACS Lysing Solution (Becton Dickinson). Leukocytes were washed again, fixed in 1% paraformaldehyde, and analyzed by flow cytometry the day of the experiment. […] Total white blood cell (Coulter Counter, Coulter Electronics, Hialeah, Fla.) and differential counts were measured in aliquots of the same blood samples used for immunofluorescence studies. Tests of control blood donors were randomly interspersed among patient samples.
Flow cytometry was performed on an Epics Profile 1 with three fluorescence channels (Coulter Cytometry, Hialeah, Fla.) that has an argon laser tuned to 488 nm. Daily alignment and calibration of the instrument was performed with DNA-check and Standard-Brite fluorescent beads (Coulter). Green (FL1), orange (FL2), and red (FL3) fluorescence signals are measured on a four-decade logarithmic scale. Linearity of log fluorescence intensity was checked with Immuno-Brite fluorescent beads. Appropriate compensations for spectral overlap between the three channels is carried out prior to calculating data. The mean intensity of fluorescence, measured on a 4 decade logarithmic scale, was converted to a linear scale, using a 256 channel histogram, to give a mean channel number, also known as the mean channel fluorescence (MCF). This was used to estimate the average fluorescence emission of cells reactive with specific monoclonal antibodies. Cell surface display of specific mAbs were precisely delineated when necessary by means of quantitative flow cytometry, using the Quantum Simply Cellular Microbeads Kit from Sigma BioSciences, St. Louis, Mo. This kit contained four bead populations that bind graduated quantities of antibodies per bead. […] By interpolation, this standard curve was used to accurately estimate the quantity of antibody bound to other cellular targets. Leukocytes were initially selected for fluorescence analysis by a combination of right-angle and low angle forward light scatter. Two color fluorescence, with PE conjugated anti-CD14 as a qualifier was used specifically to identify monocytes, and anti-CD3 to identify T lymphocytes. Other lymphoid elements were identified, as required, by using appropriate direct antibody conjugates. At least 2500 monocytes were counted in each sample. Fluorescence measurements from isotype controls were subtracted from data obtained with all reported antibodies.
To determine how fragments of fibronectin might affect VLA-5 expression, the effect of adding purified 120 kD and 40 kD fragments of fibronectin to heparin-anticoagulated whole blood from normal donors was measured. The 120 kD fragment has an RGD motif and binds to VLA-5 on cells.

U937 monocytoid cells = assay: FN120 treatment of U937 monocytoid cells: proteinase-3 expression and VLA-5 shedding; details: U937 cells treated with FN120
From the text: To further investigate how FN120 causes VLA-5 shedding, U937 monocytoid cells were studied. These display greater quantities of VLA-5 than blood monocytes. They also display the serine protease, proteinase-3, when activated (Rao et al., 1996). U937 cells were washed repeatedly, to remove exogenous fibronectin and serum proteases, and resuspended in serum-free medium for treatment with FN120. […] Treating the cells with polyclonal anti-proteinase-3 or serine proteinase inhibitors such as alpha-antitrypsin blocked proteinase-3 activity. Blocking proteinase-3 activity with either agent prevented hydrolysis and release of VLA-5 molecules that are otherwise shed when U937 cells are incubated with FN120 as shown in FIG. 11.

CD14+ monocytes = assay: Monocyte migration into collagenous matrices with or without native fibronectin; details: 4 hrs at 37° C., pads impregnated with full-length 220 kD native fibronectin
Procedure: Briefly, monocytes were incubated with collagenous matrices, half of which had been impregnated with full-length 220 kD native fibronectin. After 4 hrs contact at 37° C., unbound MNLs were washed away. The pads were dissolved with collagenase to recover and count the cells that had migrated into the matrix (Birdsall et al., 1997).

c1cnc2c(c1)ccc1cccnc12 [1,10 phenanthroline]
log fluorescence intensity for VLA-5 (CD49e stained with mAb SAM-1) in the CD14+ (monocyte) population, FN120 (monocyte VLA-5 (CD49e)): 3.1 ± 0.6
log fluorescence intensity for VLA-5 (CD49e stained with mAb SAM-1) in the CD14+ (monocyte) population, No Rx (monocyte VLA-5 (CD49e)): 4.9 ± 0.6

O=CC[C@@H](O)[C@H](O)[C@H](O)CO [2-deoxyglucose]
loss of VLA-5 with 120 kD fibronectin fragments when cellular metabolism is inhibited (monocyte VLA-5 (CD49e); 2-deoxyglucose and sodium azide together, with 120 kD fibronectin fragments): failed to occur

[Cl][Cd][Cl] [CdCl2]
log fluorescence intensity for VLA-5 (CD49e stained with mAb SAM-1) in the CD14+ (monocyte) population, FN120 (monocyte VLA-5 (CD49e)): 2.2 ± 0.3
log fluorescence intensity for VLA-5 (CD49e stained with mAb SAM-1) in the CD14+ (monocyte) population, No Rx (monocyte VLA-5 (CD49e)): 4.7 ± 0.5

O=C(O)CN(CCOCCOCCN(CC(=O)O)CC(=O)O)CC(=O)O [EGTA]
log fluorescence intensity for VLA-5 (CD49e stained with mAb SAM-1) in the CD14+ (monocyte) population, FN120 (monocyte VLA-5 (CD49e)): 2.8 ± 0.6
log fluorescence intensity for VLA-5 (CD49e stained with mAb SAM-1) in the CD14+ (monocyte) population, No Rx (monocyte VLA-5 (CD49e)): 5.1 ± 0.3

O=S(=O)(F)Cc1ccccc1 [PMSF, phenylmethylsulfonylfluoride]
log fluorescence intensity for VLA-5 (CD49e stained with mAb SAM-1) in the CD14+ (monocyte) population, FN120 (monocyte VLA-5 (CD49e)): 5.8 ± 0.7
log fluorescence intensity for VLA-5 (CD49e stained with mAb SAM-1) in the CD14+ (monocyte) population, No Rx (monocyte VLA-5 (CD49e)): 5.4 ± 0.5

CC(C)C[C@H](NC(=O)[C@@H](O)[C@H](N)Cc1ccccc1)C(=O)O [bestatin]
log fluorescence intensity for VLA-5 (CD49e stained with mAb SAM-1) in the CD14+ (monocyte) population, FN120 (monocyte VLA-5 (CD49e)): 2.4 ± 0.5
log fluorescence intensity for VLA-5 (CD49e stained with mAb SAM-1) in the CD14+ (monocyte) population, No Rx (monocyte VLA-5 (CD49e)): 4.9 ± 0.3

alpha-antitrypsin: serine proteinase inhibitor
proteinase-3 activity (U937 monocytoid cells): blocked

fibronectin
CD14+ monocytes accumulated in fibronectin-containing pads versus plain collagen pads (CD14+ monocytes): three times as many
